Tests used:
Assay type in all cases: in vivo
[1] = Plasma concentrations in rats (plasma drug assay, H2G AUC oral vs i.v.); settings: rat, 10 mg/kg oral dose in propylene glycol, plasma H2G AUC vs 10 mg/kg intravenous H2G
Experimental: A plasma concentration assay was done in male Sprague Dawley derived rats. The animals were fasted overnight prior to dosing but were permitted free access to water. Each of the compounds evaluated was prepared as a solution/suspension in propylene glycol at a concentration corresponding to 10 mg H2G/ml and shaken at room temperature for eight hours. Groups of rats (at least 4 rats in each group) received a 10 mg/kg (1 ml/kg) oral dose of each of the compounds; the dose was administered by gavage. At selected time points after dosing (0.25, 0.5, 1, 1.5, 2, 4, 6, 9, 12, 15, and 24 hours after dosing), heparinized blood samples (0.4 ml/sample) were obtained from a tail vein of each animal. The blood samples were immediately chilled in an ice bath. Within two hours of collection, the plasma was separated from the red cells by centrifugation and frozen till analysis. The components of interest were separated from the plasma proteins using acetonitrile precipitation. Following lyophilisation, and reconstitution, the plasma concentrations were determined by reverse phase HPLC with fluorescence detection. The oral uptake of H2G and other test compounds was determined by comparison of the H2G area under the curve derived from the oral dose compared to that obtained from a 10 mg/kg intravenous dose of H2G, administered to a separate group of rats. The results are depicted in Table 1B above.

[2] = Bioavailability testing in rats (24 h urinary H2G recovery); settings: rat; for Bioavailability (Table 2): 0.1 mmol/kg per oral, 24 hour urinary H2G recovery as percentage of recovery after 0.1 mmol/kg i.v. H2G
Experimental: The bioavailability of compounds of the invention were compared to the parent compound H2G and other H2G derivatives in a rat model. Compounds of the invention and comparative compounds were administered, per oral (by catheter into the stomach), to multiples of three individually weighed animals to give 0.1 mmol/kg of the dissolved prod rug in an aqueous (Example 4, 5, Comparative example 1-3, 5, 8), peanut oil (Comparative examples 4, 9, 10) or propylene glycol (Example 1-3, 6-12, 17, Comparative example 6, 7) vehicle dependent on the solubility of the test compound ingredient. The animals were fasted from 5 hours before to approximately 17 hours after administration and were maintained in metabolic cages. Urine was collected for the 24 hours following administration and frozen until analysis. H2G was analysed in the urine using the HPLC/UV assay of Stahle & Öberg, Antimicrob Agents Chemother. 36 No 2, 339-342 (1992), modified as follows: samples upon thawing are diluted 1:100 in aq dist H2O and filtered through an amicon filter with centrifugation at 3000 rpm for 10 minutes. Duplicate 30 μl samples are chromatographed on an HPLC column; Zorbax SB-C18; 75×4.6 mm; 3.5 micron; Mobile phase 0.05M NH4PO4, 3-4% methanol, pH 3.3-3.5; 0.5 ml/min; 254 nm, retention time for H2G at MeOH 4% and pH 3.33, ˜12.5 min. Bioavailability is calculated as the measured H2G recovery from each animal averaged over at least three animals and expressed as a percentage of the averaged 24 hour urinary H2G recovery from a group of 4 individually weighed rats respectively injected i.vjugularis with 0.1 mmol/kg H2G in a Ringer's buffer vehicle and analysed as above.
Comparative example 1 (H2G) was from the same batch as used for preparation of Examples 1 to 12. The preparation of Comparative example 2 (monoVal-H2G) and 3 (diVal-H2G) are shown in Examples 21 and 23. […] Comparative examples 5 & 8 (Val/Ac H2G) were prepared analogously to Example 4 using acetic anhydride with relevant monovaline H2G. […]

[3] = tested on: Herpes simplex virus-1 (HSV-1); assay: Antiviral activity in HSV-1-infected mouse (survival); settings: 21 and 83 mg/kg p.o. three times daily for 5 days, relative to equivalent dose of acyclovir
Experimental: Herpes simplex virus-1 (HSV-1)-infected mouse serves as an animal model to determine the efficacy of antiviral agents in vivo. Mice inoculated intraperitoneally with HSV-1 at 1000 times the LD50 were administered either with a formulation comprising the currently marketed anti-herpes agent acyclovir (21 and 83 mg/kg in a 2% propylene glycol in sterile water vehicle, three times daily, p.o.) or the compound of Example 29 (21 and 83 mg/kg in a 2% propylene glycol in sterile water vehicle, three times daily, p.o.) for 5 consecutive days beginning 5 hours after inoculation. The animals were assessed daily for deaths. […] In the legend, the compound of the invention is denoted Ex. 29 and acyclovir is denoted ACV.

Bioavailability (Table 1B) [1] [%] | Bioavailability (Table 2) [2] [%] | Bioavailability (Table 1A) ([2]; oral, urinary recovery assay of H2G, relative to i.v. H2G) [%] | Structure (SMILES) | percentage of mice surviving the HSV-1 infection [3]
3.8 | 8 | 8 | Nc1nc2c(ncn2CC(CO)CCO)c(=O)[nH]1 (centres unmarked) [Comparative example 1, 9-[4-hydroxy-(2-hydroxymethyl)butyl]guanine] | –
– | – | – | CCCCCCCCCCCCCCCCCC(=O)OC[C@H](CCOC(=O)[C@@H](N)C(C)C)Cn1cnc2c(=O)[nH]c(N)nc21.Cl [Example 29] | significantly greater
– | 52 | – | CC(=O)CCCC(=O)OC[C@H](CCOC(=O)[C@@H](N)C(C)C)Cn1cnc2c(=O)[nH]c(N)nc21 [Example 10] | –

Source: patent US8124609B2, “Acyclic nucleoside derivatives” (Medivir AB, priority 1996, dated 2012)
